Measured values reported in article PMC8329197, “Compounds targeting OSBPL7 increase ABCA1-dependent cholesterol efflux preserving kidney function in two models of kidney disease” (Nature Communications, 2021).
Where “and” joins values, the source holds several entries; their conditions need not be identical. Equal values may be shown once.

What was measured:
[1] = test system: Adriamycin (ADR)-induced nephropathy in Balb/c mice; assay: ADR nephropathy: WBC, hemoglobin, hematocrit, ALT, AST; type: in vivo, mouse; conditions: ADR-induced nephropathy, 28 days treatment
[2] = test system: Adriamycin (ADR)-induced nephropathy in Balb/c mice; assay: ADR nephropathy: blood urea nitrogen (BUN) and serum creatinine; type: in vivo, mouse; conditions: 28 days treatment
From the text: Supplement 41467_2021_24890_MOESM5_ESM.xlsx, sheet "Supplementary Table 4" | column: ADR+ Cpd A; ADR+ Cpd G; ADR+ Cpd C

[3] = test system: Adriamycin (ADR)-induced nephropathy in Balb/c mice; assay: Adriamycin-induced nephropathy, dose-finding pilot study: ACR and body weight time course; conditions: for ACR in pilot study: days 7-28; for Body Weight / ACR in spot urine: ADR, individual mice
[4] = 30 mg/Kg/day, 7 days after inj, 30 mg/kg/day
[5] = 30 mg/Kg/day, 14 days after inj, 30 mg/kg/day
[6] = 100 mg/Kg/day, 7 days after inj, 100 mg/kg/day
[7] = 100 mg/Kg/day, 14 days after inj, 100 mg/kg/day
[8] = 100 mg/Kg/day, 21 days after inj, 100 mg/kg/day
[9] = 100 mg/Kg/day, 28 days after inj, 100 mg/kg/day

## O=C(N[C@@H]1CCCC[C@H]1O)c1ccc(OCC(F)(F)F)c(-c2ccc(Cl)c(Cl)c2)n1 [Cpd A]
[1]; group maximum
  Hgb, Max: 15.5 g/dL
  WBC, Max: 8.2 x 10^3 cells/ul
[1]; group median
  ALT, Median: 256.5 U/L
  AST, Median: 326 U/L
  HTC, Median: 54%
  Hgb, Median: 13.6 g/dL
  WBC, Median: 5.5 x 10^3 cells/ul
[1]; group minimum
  ALT, Min: 88 U/L
  AST, Min: 200 U/L
  HTC, Min: 47%
  Hgb, Min: 12.1 g/dL
  WBC, Min: 3.7 x 10^3 cells/ul
[1]; individual mouse values
  Alanine Aminotransferase (ALT): 766 U/dL and 263 U/dL and 250 U/dL and 88 U/dL and 91 U/dL and 578 U/dL
  Aspartate Aminotransferase (AST): 685 U/dL and 372 U/dL and 280 U/dL and 200 U/dL and 217 U/dL and 438 U/dL
  Hematocrit HTC: 58% and 54% and 62% and 47% and 56% and 52% and 48% and 51%
  White Blood Cells WBC: 7.7 x 10^3 cells/ul and 8.2 x 10^3 cells/ul and 4.7 x 10^3 cells/ul and 3.8 x 10^3 cells/ul and 4.3 x 10^3 cells/ul and 3.7 x 10^3 cells/ul and 7 x 10^3 cells/ul and 6.3 x 10^3 cells/ul and 7.5 x 10^3 cells/ul
[2]; 25th quartile
  BUN, QR(25): 16 mg/dL
  sCre, QR(25): 0.11 mg/dL
[2]; 75th quartile
  BUN, QR(75): 17.75 mg/dL
  sCre, QR(75): 0.135 mg/dL
[2]; group maximum
  BUN, Max: 23 mg/dL
  sCre, Max: 0.17 mg/dL
[2]; group median
  BUN, Median: 17 mg/dL
  sCre, Median: 0.115 mg/dL
[2]; group minimum
  BUN, Min: 13 mg/dL
  sCre, Min: 0.08 mg/dL
[2]; individual mouse values
  Blood Urea nitrogen (BUN): 17 mg/dL and 23 mg/dL and 18 mg/dL and 19 mg/dL and 16 mg/dL and 15 mg/dL and 13 mg/dL
  Serum Creatinine sCre: 0.12 mg/dL and 0.08 mg/dL and 0.17 mg/dL and 0.1 mg/dL and 0.15 mg/dL and 0.11 mg/dL and 0.14 mg/dL
[3]; 30 mg/kg/day oral
  ACR in pilot study: significantly improved
[3]; 100 mg/kg/day oral
  ACR in pilot study: significantly improved
[3]; 30 mg/Kg/day, 0 days after inj, 30 mg/kg/day
  Body Weight: 19 grams (3×) and 18 grams and 20 grams
[3]; [4]
  ACR in spot urine: 0.046 mg Albumin/ mg Creatinine in urine and 0.018 mg Albumin/ mg Creatinine in urine and 0.038 mg Albumin/ mg Creatinine in urine and 0.025 mg Albumin/ mg Creatinine in urine and 0.07 mg Albumin/ mg Creatinine in urine
  Body Weight: 18 grams and 17 grams (3×) and 19 grams
[3]; [5]
  ACR in spot urine: 18.583 mg Albumin/ mg Creatinine in urine and 0.363 mg Albumin/ mg Creatinine in urine and 64.328 mg Albumin/ mg Creatinine in urine and 0.368 mg Albumin/ mg Creatinine in urine and 1.926 mg Albumin/ mg Creatinine in urine
  Body Weight: 18 grams (3×) and 17 grams (2×)
[3]; 30 mg/Kg/day, 21 days after inj
  Body Weight: 18 grams
[3]; 30 mg/Kg/day, 21 days after inj, 30 mg/kg/day
  ACR in spot urine: 1.551 mg Albumin/ mg Creatinine in urine and 71.309 mg Albumin/ mg Creatinine in urine and 0.609 mg Albumin/ mg Creatinine in urine and 0.814 mg Albumin/ mg Creatinine in urine
[3]; 30 mg/Kg/day, 28 days after inj
  Body Weight: 19 grams
[3]; 30 mg/Kg/day, 28 days after inj, 30 mg/kg/day
  ACR in spot urine: 2.363 mg Albumin/ mg Creatinine in urine and 0.33 mg Albumin/ mg Creatinine in urine and 3.08 mg Albumin/ mg Creatinine in urine and 0.093 mg Albumin/ mg Creatinine in urine and 0.242 mg Albumin/ mg Creatinine in urine
[3]; 100 mg/Kg/day, 0 days after inj, 100 mg/kg/day
  Body Weight: 20 grams (2×) and 18 grams and 19 grams (2×)
[3]; [6]
  ACR in spot urine: 0.022 mg Albumin/ mg Creatinine in urine and 0.015 mg Albumin/ mg Creatinine in urine and 0.072 mg Albumin/ mg Creatinine in urine and 0.065 mg Albumin/ mg Creatinine in urine
  Body Weight: 18 grams and 17 grams (4×)
[3]; [7]
  ACR in spot urine: 5.851 mg Albumin/ mg Creatinine in urine and 174.428 mg Albumin/ mg Creatinine in urine and 9.218 mg Albumin/ mg Creatinine in urine and 96.72 mg Albumin/ mg Creatinine in urine
  Body Weight: 17 grams (3×) and 18 grams and 19 grams
[3]; [8]
  ACR in spot urine: 3.536 mg Albumin/ mg Creatinine in urine and 136.245 mg Albumin/ mg Creatinine in urine and 73.737 mg Albumin/ mg Creatinine in urine and 208.282 mg Albumin/ mg Creatinine in urine
  Body Weight: 15 grams and 18 grams (3×)
[3]; [9]
  ACR in spot urine: 0.638 mg Albumin/ mg Creatinine in urine and 26.929 mg Albumin/ mg Creatinine in urine and 1.99 mg Albumin/ mg Creatinine in urine and 18.858 mg Albumin/ mg Creatinine in urine
  Body Weight: 15 grams and 19 grams and 18 grams and 14 grams
